# Laboratory results taken from a melting point compilation (Tetko et al.; mined from patent text by program, amines drawn as free bases though some values may be those of a salt).
row,Compound,melting point [°C]
1,O=C1NCCc2cc(I)ccc21,> 300
2,O=C(c1ccc(Cl)c(Cl)c1)N(CCCCn1ccnc1)C1=Nc2cccc3cccc1c23,138 to 141
3,Cc1ccc(-c2ccccc2-c2c(OC(C)C)c(=O)c2=O)cc1,126 to 130
4,CC1(C)Oc2ccc(C#N)cc2C(OC(=O)C2CCCN2S(=O)(=O)c2ccc(Cl)cc2)C1Br (stereo unspecified),178 to 180
5,COc1ccc(-n2cc(C)cc2-c2ccc(S(C)(=O)=O)cc2)cc1,154 to 160
6,CCCN(Cc1ccc(-c2ccccc2-c2nnnn2C(c2ccccc2)(c2ccccc2)c2ccccc2)cc1)c1ncncc1C(=O)OCC,100 to 103
7,OC1(c2ccccc2)CCN(CCN2CCN(Cc3cc(C(F)(F)F)cc(C(F)(F)F)c3)CC2c2ccc(Cl)c(Cl)c2)CC1 (stereo unspecified),71 to 72
8,CCN1CC[C@H](NC(=O)c2cc(Cl)c(N)c3c2OCCC3)[C@H](OC)C1 (relative stereo),154
9,O=C(C=C1c2ccccc2-c2ccccc21)NCCCCCC(=O)NO,174 to 176
10,C=CCSc1nnc(C(C)(C)C)[nH]1,127 to 130
11,CN[C@H]1CC[C@H](CO)CC1,87 to 88
12,C=CCNc1nc(NCCC)c2cc([N+](=O)[O-])ccc2n1,211 to 212
13,CS(=O)CCNC(=O)c1cccc(-c2cccc(Oc3cc(Cl)cc(Cl)c3)n2)c1 (stereo unspecified),158 to 159
14,CCCCCCc1ccc(C(=O)O)cc1[N+](=O)[O-],106 to 108
15,CC1CC(C)(C)c2cccc(NC(=O)c3cn(C)nc3C(F)F)c21 (stereo unspecified),131 to 134
16,Clc1ccccc1/C=C/C1=CCN(Cc2c[nH]c3ncccc23)CC1,174 to 176
17,O=c1[nH]c(=Cc2ccc(OCc3ccccc3)cn2)c(=O)[nH]c1=Cc1cccc(Cl)c1,236 to 237
18,O=C1OC(=Cc2c[nH]c3ccccc23)C(=O)N1Cc1cc(C(F)(F)F)cc(C(F)(F)F)c1,145 to 146
19,C=CCn1c(NC)nn(C(=O)Nc2ccccc2)c1=S,132 to 133
20,Oc1c2c(nn1-c1nc3ccccc3[nH]1)CCc1ccccc1-2,205 to 206
21,COC(=O)c1ccc(C(O)c2cc3cc(C(F)(F)F)ccc3n2S(=O)(=O)c2ccc3c(c2)N(C)CCO3)cc1 (stereo unspecified),80
22,C=C(CO)COCCCCCCCCCCCCCCCC,34
23,CCCC(=O)C(=CNc1ccc(OC(=O)c2ccccc2)cc1OC)C(=O)OCC,85 to 87
24,COC(=O)c1c(N(C)C(C)=O)cc(C)cc1N(C)C(C)=O,163 to 164
25,COC(=O)c1ccc(-c2ccccc2)cc1S(=O)(=O)NC(=O)Nc1nc(C)nc(OC)n1,198 to 200
26,NS(=O)(=O)c1ccc(F)c(F)c1,89 to 91

row,Compound,melting point [°C]
1,"CCCN1C(=O)CC2CCC(C)C3CCC4(C)OOC23C1O4 (single isomer, unassigned; (-))",125 to 126
2,CCOC(=O)c1ccc(-c2cn3cc(C)ccc3n2)cc1,228 to 230
3,NCC1(O)C2CC3CC(C2)CC1C3 (stereo unspecified),154 to 156
4,COc1cc(OC)c2c(C)c(CCCl)c(=O)oc2c1,129 to 130
5,CC(C)OP(=O)(/C=C/C(CO)Cn1cnc2c(N)ncnc21)OC(C)C (stereo unspecified),130
6,CCOC(=O)c1cc2c(-c3ccc(C(F)(F)F)n(C)c3=O)c(F)cc(Cl)c2o1,118 to 120
7,Cc1cc(N)nc(CCc2nc3cc(-c4cccc(O)c4)cnc3[nH]2)c1,162
8,CCCCCCCCC1C(=O)NC(=O)N1CCCCCCC(=O)O (stereo unspecified),65 to 66
9,Cc1nc2sccn2c(=O)c1CCN1CCC(NC(=O)c2cc(Cl)c(N)c3c2OCCC3)CC1,212
10,CCOC(=O)c1ncn2c1CN=C(c1ccccc1)c1cc(Br)ccc1-2,210 to 212
11,C1=CC2=NCCN2C=C1,178 to 180
12,CC(/C=C/C(=O)OC(C)(C)C)=C\c1ccc(N)cc1,99 to 101
13,NC(=O)CC[C@H](NCc1ccccc1C(=O)O)C(=O)O,132 to 133
14,CC(C)(C)C(O)C(CC1CCCCC1)n1cncn1 (stereo unspecified),104 to 107
15,Cc1cc2n(C)c(=O)c3cnc(Cl)cc3n2n1,254
16,CCCCCCCC1=CC(=O)N(c2ccccc2)C1(O)CBr (stereo unspecified),152 to 154
17,Nc1cc(Cl)nn1-c1c(Cl)cc(C(F)(F)F)cc1Cl,128 to 129
18,O=C(O)CCn1cnc2c(Cl)ncnc21,163 to 165
19,CSc1ncccc1NC(=O)CCCCCSc1nc2ccccc2s1,118 to 119
20,CCOC(=O)c1sc(SC)c2c1CCc1cn(C)nc1-2,193 to 194
21,Nc1nc(Cl)c(Cl)nc1[N+](=O)[O-],169 to 170
22,O=[N+]([O-])c1ccc(C=C/C=C/c2ccc(Cl)c(Cl)c2)cc1,125 to 135
23,CN(C(CCn1c(=O)cc(C(F)(F)F)[nH]c1=O)C(=O)NO)S(=O)(=O)c1ccc(Oc2ccncc2)cc1 (stereo unspecified),116 to 118
24,COc1cc(OC)c2c(=O)[nH]c(-c3ccc4[nH]nc(CO)c4c3)nc2c1,264 to 266
25,Cc1cc(C2=C(C=CC3CC(O)CC(=O)O3)C(C)(C)CC(O)C2)ccc1F (stereo unspecified),77 to 79
